Data: US20230117470A1, “SUBSTITUTED PYRAZOLE COMPOUNDS AS TOLL RECEPTOR INHIBITORS” (BRISTOL-MYERS SQUIBB COMPANY, priority 2019, published 2023)

How the values were obtained:
Assay type in all cases: cell-based
human TLR7 = biological target: T1, human TLR7 (Homo sapiens, UniProt Q9NYK1); assay: TLR7 inhibition reporter assay (HEK-Blue cells, SEAP reporter, gardiquimod stimulation); details: HEK-Blue cells overexpressing human TLR7, SEAP reporter, gardiquimod 7.5 μM
T1 construct: host or cells: HEK-Blue cells
T1 sequence (Q9NYK1 27-1049): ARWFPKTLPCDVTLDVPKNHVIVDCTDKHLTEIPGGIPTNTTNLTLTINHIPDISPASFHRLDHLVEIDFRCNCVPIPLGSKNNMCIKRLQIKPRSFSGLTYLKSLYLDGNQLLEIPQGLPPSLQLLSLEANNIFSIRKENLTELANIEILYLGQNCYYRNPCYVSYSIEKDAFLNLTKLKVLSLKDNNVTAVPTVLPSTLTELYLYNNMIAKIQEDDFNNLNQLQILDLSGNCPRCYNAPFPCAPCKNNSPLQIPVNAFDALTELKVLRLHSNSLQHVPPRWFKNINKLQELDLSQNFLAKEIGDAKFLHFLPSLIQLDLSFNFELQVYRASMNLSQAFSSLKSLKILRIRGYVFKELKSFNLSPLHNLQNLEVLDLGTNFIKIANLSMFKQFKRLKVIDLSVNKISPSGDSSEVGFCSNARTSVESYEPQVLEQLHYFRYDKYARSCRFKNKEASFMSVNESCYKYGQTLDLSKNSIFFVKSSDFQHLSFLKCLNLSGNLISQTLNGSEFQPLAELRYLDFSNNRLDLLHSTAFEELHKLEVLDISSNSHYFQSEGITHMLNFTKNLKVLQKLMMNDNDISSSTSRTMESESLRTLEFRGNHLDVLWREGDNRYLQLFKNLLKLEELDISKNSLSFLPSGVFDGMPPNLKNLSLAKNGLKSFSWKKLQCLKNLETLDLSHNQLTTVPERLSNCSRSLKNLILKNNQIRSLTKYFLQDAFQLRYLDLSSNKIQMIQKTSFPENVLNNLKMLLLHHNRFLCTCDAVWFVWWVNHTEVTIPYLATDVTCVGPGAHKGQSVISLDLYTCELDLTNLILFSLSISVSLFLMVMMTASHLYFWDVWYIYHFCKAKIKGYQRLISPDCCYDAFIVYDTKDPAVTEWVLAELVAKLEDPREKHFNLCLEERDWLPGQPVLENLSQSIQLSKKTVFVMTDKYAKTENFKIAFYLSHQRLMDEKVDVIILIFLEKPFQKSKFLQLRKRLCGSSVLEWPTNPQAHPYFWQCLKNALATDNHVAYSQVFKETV
Method in brief: (§1)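 HEK-Blue cells overexpressing human TLR7, TLR8 or TLR9, with an NF-κB/AP-1-driven SEAP reporter, pre-treated 30 min at room temperature with compound (0.05 nM-50 μM final). Stimulated with 7.5 μM gardiquimod (TLR7), 15.9 μM R848 (TLR8) or 5 nM ODN2006 (TLR9), then 22 h at 37° C. SEAP read with HEK-Blue Detection; % inhibition set against agonist+DMSO and known-inhibitor wells.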

human TLR8 = biological target: T2, human TLR8 (Homo sapiens, UniProt Q9NR97); assay: TLR8 inhibition reporter assay (HEK-Blue cells, SEAP reporter, R848 stimulation); details: HEK-Blue cells overexpressing human TLR8, SEAP reporter, R848 15.9 μM
T2 construct: host or cells: HEK-Blue cells
T2 sequence (Q9NR97 27-1041): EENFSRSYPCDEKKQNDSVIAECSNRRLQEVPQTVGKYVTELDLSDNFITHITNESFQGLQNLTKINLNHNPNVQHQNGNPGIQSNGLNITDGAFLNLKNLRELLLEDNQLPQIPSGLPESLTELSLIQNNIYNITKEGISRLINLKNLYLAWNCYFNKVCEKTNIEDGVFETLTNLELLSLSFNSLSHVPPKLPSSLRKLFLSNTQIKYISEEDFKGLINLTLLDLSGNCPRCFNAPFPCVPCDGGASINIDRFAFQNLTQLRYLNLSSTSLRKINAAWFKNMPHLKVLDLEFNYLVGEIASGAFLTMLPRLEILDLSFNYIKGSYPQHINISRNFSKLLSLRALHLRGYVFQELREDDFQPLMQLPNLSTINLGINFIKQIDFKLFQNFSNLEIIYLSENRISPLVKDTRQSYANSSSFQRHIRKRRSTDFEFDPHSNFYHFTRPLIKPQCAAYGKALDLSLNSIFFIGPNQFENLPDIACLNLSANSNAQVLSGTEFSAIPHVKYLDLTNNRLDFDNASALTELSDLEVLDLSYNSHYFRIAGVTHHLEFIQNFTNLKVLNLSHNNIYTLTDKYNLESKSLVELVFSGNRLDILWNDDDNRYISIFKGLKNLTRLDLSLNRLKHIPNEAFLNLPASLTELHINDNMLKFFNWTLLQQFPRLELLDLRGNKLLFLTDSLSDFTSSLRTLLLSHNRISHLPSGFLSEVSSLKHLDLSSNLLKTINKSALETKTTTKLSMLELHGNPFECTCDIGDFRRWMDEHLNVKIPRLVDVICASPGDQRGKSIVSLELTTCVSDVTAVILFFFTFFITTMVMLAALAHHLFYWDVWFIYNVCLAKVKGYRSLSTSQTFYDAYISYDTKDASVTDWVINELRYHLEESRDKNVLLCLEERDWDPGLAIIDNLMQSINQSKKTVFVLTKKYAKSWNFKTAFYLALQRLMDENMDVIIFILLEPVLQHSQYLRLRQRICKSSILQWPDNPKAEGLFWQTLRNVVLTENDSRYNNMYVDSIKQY
Method in brief: as §1

human TLR9 = biological target: T3, human TLR9 (Homo sapiens, UniProt Q9NR96); assay: TLR9 inhibition reporter assay (HEK-Blue cells, SEAP reporter, ODN2006 stimulation); details: HEK-Blue cells overexpressing human TLR9, SEAP reporter, ODN2006 5 nM
T3 construct: host or cells: HEK-Blue cells
T3 sequence (Q9NR96 26-1032): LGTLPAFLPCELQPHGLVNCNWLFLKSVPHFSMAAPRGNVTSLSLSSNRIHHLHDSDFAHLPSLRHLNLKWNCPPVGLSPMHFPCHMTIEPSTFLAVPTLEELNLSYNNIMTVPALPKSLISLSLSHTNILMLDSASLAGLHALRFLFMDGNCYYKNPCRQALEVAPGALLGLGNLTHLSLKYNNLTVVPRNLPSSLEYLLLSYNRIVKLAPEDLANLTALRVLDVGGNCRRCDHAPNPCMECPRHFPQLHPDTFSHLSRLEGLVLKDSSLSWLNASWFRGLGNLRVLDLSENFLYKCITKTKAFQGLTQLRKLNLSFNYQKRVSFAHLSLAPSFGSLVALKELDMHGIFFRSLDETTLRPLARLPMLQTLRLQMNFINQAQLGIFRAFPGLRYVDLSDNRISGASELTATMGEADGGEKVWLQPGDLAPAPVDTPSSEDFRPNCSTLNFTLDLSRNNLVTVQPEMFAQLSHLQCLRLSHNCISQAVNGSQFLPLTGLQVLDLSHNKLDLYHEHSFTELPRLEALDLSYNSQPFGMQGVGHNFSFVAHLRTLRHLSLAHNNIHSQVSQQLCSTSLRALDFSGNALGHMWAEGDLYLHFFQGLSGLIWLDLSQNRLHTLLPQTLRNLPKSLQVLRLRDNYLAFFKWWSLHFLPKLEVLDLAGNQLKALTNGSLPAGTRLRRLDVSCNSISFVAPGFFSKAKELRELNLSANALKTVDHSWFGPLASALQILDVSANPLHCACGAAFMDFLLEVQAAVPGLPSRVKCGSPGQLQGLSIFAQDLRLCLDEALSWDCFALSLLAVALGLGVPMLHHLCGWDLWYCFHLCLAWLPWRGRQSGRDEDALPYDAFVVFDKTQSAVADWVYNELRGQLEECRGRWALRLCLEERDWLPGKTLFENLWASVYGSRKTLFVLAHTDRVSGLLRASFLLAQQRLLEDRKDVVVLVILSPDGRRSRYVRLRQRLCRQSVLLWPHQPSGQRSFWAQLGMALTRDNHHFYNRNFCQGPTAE
Method in brief: as §1

Row | Structure (SMILES) | IC50 (human TLR7) [nM] | IC50 (human TLR8) [nM] | IC50 (human TLR9) [nM]
1 | Cc1cc(-c2[nH]nc(-c3ccc(C4CCN(CC(C)(C)C)CC4)cc3)c2C(C)C)cn2ncnc12 [Example 317] | 9.47 | 4.22 | 44400
2 | COc1cc(-c2[nH]nc(-c3cnc(C4CCNCC4)cn3)c2C(C)C)cn2ncnc12 [Example 345] | 23.4 | 3.12 | > 50000
3 | Cc1cc(-c2[nH]nc(C(=O)NC3CCN(CCC(F)(F)F)CC3)c2C(C)C)cn2ncnc12 [Example 169] | 4.17 | 17 | 9810
4 | COc1cc(-c2[nH]nc(-c3ccc(C4CN(C5COC5)C4)cc3)c2C(C)C)cn2ncnc12 [Example 332] | 16.9 | 1.91 | 10200
5 | Cc1cc(-c2[nH]nc(C(=O)NCC3CN(CC(C)(C)C)CCO3)c2C(C)C)cn2ncnc12 (stereo not drawn) [Example 145] | 60.3 | 41.6 | > 50000
6 | Cc1cc(-c2[nH]nc(-c3nc4c(s3)CN(C(C)C)CC4)c2C(C)C)cn2ncnc12 [Example 252] | 67.9 | 35.8 | > 50000
7 | Cc1cc(-c2[nH]nc(C(=O)N[C@H]3CC[C@H](NC(C)CC(C)(C)C)CC3)c2C(C)C)cn2ncnc12 (stereo partly drawn) [Example 120] | 4.19 | 16.7 | > 50000
8 | COc1cc(-c2[nH]nc(-c3ccc(C4CN(C(C)C)C4)cc3)c2C(C)C)cn2ncnc12 [Example 331] | 4.29 | 0.49 | 6310
9 | Cc1c(C(=O)NC2CCN(C)CC2)n[nH]c1-c1cc(C)c2ncnn2c1 [compound 180] | 3.54 | 3.7 | 5280
10 | Cc1cc(-c2[nH]nc(-c3ccc(C(N)=O)cc3)c2C(C)C)cn2ncnc12 [Example 229] | 7.1 | 3.71 | 4960
11 | Cc1cc(-c2[nH]nc(C(=O)N3CCN(c4ccncc4)CC3)c2C(C)C)cn2ncnc12 [Example 14] | 1.92 | 0.94 | 3840
12 | Cc1cc(-c2[nH]nc(C3CCC(N(C)C(=O)CN(C)C)CC3)c2C(C)C)cn2ncnc12 (stereo not drawn) [Example 296, 2-(dimethylamino)-N-(4-(4-isopropyl-5-(8-methyl-[1,2,4]triazolo[1,5-a]pyridin-6-yl)-1H-pyrazol-3-yl)cyclohexyl)-N-methylacetamide] | 3.45 | 0.73 | 33800
13 | COc1cc(-c2[nH]nc(-c3cnc(C4CCN(CCS(C)(=O)=O)CC4)cn3)c2C(C)C)cn2ncnc12 [Example 397] | 221 | 463 | > 50000
14 | Cc1cc(-c2[nH]nc(C(=O)N(C)C)c2C(C)C)cn2ncnc12 [Example 31] | 3.98 | 3.02 | > 50000
15 | CNC1CCC(NC(=O)c2n[nH]c(-c3cc(C)c4ncnn4c3)c2C(C)C)CC1 (stereo not drawn) [Example 130] | 0.45 | 2.42 | 11500
16 | Cc1cc(-c2[nH]nc(C(=O)NC3CCN(CC(C)(C)O)CC3)c2C(C)C)cn2ncnc12 [Example 138] | 0.93 | 3.96 | 14800
17 | Cc1cc(-c2[nH]nc(C(=O)N[C@@H]3CCCN(C(C)C)C3)c2C(C)C)cn2ncnc12 [Example 161] | 18.1 | 14.7 | 17000
18 | Cc1cc(-c2[nH]nc(C(=O)NC3CCN(C(C)C)CC3)c2C(C)C)cn2ncnc12 [Example 2] | 2.27 | 5.82 | 6560
19 | CCCN1CC(c2ccc(-c3n[nH]c(-c4cc(OC)c5ncnn5c4)c3C(C)C)cc2)C1 [Example 330] | 8.34 | 1.5 | 11400
20 | Cc1cc(-c2[nH]nc(C(=O)NC3CCN(C)CC3)c2C(C)C)cn2ncnc12 [Example 8] | 2.47 | 5.42 | 30900
21 | Cc1cc(-c2[nH]nc(C(=O)NC3CCN(C(C)C)CC3)c2C(C)C)ccn1 [Example 38] | 7.93 | 4.43 | 2280
22 | Cc1cc(-c2[nH]nc(CN(C)C)c2C(C)C)cn2ncnc12 [Example 184, 1-(4-isopropyl-5-(8-methyl-[1,2,4]triazolo[1,5-a]pyridin-6-yl)-1H-pyrazol-3-yl)-N,N-dimethylmethanamine] | 1.01 | 0.84 | 11400
23 | CCC(CC)N1CCC(c2cnc(-c3n[nH]c(-c4cc(OC)c5ncnn5c4)c3C(C)C)cn2)CC1 [Example 386] | 10.3 | 3.56 | 9560
24 | Cc1cc(-c2[nH]nc(-c3cnc(C4CCNCC4)nc3)c2C(C)C)cn2ncnc12 [Example 343] | 24.1 | 3.3 | > 50000
25 | COc1cc(-c2[nH]nc(-c3ccc(C4CCN(CC5(C)COC5)CC4)cc3)c2C(C)C)cn2ncnc12 [Example 312] | 5.42 | 17.8 | > 50000
